pIC50: −log10 of the molar value. Several values for one entry are separate records, joined by “and”; a condition that tells them apart may be missing. Identical values can stand only once.

For orientation: viability, T/C means the result in the treated group divided by that in the control group, in per cent. A word on the pIC50: it is the negative decadic logarithm of the IC50, by convention in mol/L. The IC50 is the concentration that gives 50% inhibition.

The experiment relates to 233499-124-R-J3-PDC complex spheroid viability. Briefly: Anticancer human tumor 233499-124-R-J3-PDC patient-derived colon adenocarcinoma cell line growth inhibition [CLK]. Conditions: for viability, T/C: stronger effect = lower value. The source says: A high-throughput screen of multi-cell type tumor spheroids was designed to identify active combinations of […] and targeted small molecules. Complex spheroids include a stromal component modeled by human endothelial cells (HUVEC) and fibroblasts modeled by human mesenchymal stem cells (MSCs). The concentration ranges selected for each drug and investigational agent were based upon clinically achievable concentrations if the clinical Cmax of the agent was known.
Compounds. The drugs and investigational agents: cirtuvivint (SM08502; NSC835563), CC-671 (NSC850746), vemurafenib (NSC761431), tapotoclax (NSC804041), sotorasib (NSC818433), adagrasib (NSC831453), MRTX-1133 (NSC836407), BAY2416964 (NSC825713), copanlisib (NSC816437), inavolisib (NSC800729), abemaciclib (NSC768073), osimertinib (NSC779217), entinostat (NSC756642), eltanexor (KPT-8602, NSC794443), venetoclax (NSC766270), ceralasertib (NSC777638), bortezomib (NSC756655), olaparib (NSC753686), talazoparib (NSC767125), alisertib (NSC759677), peposertib (NSC802822), gemcitabine (NSC613327), 5-fluorouracil (NSC19893), SN-38 (NSC673596), oxaliplatin (NSC266046), paclitaxel (NSC125973), and doxorubicin (NSC123127), were obtained from the National Cancer Institute (NCI) Developmental Therapeutics Program Chemical Repository. The FDA-approved anticancer drug set is available from the Developmental Therapeutics Program at https://dtp.cancer.gov/organization/dscb/obtaining/available plates.htm. […] The stock solutions were prepared in dimethyl sulfoxide (DMSO, Sigma-Aldrich, St. Louis, MO, cat. D2650), except for the platinum complexes which were prepared in saline (Quality Biological, Gaithersburg, MD, cat. 114-055-101), at 800-fold the tested concentration and stored at -70 degrees C prior to their use. All drugs and investigational agents were tested over a range starting from a high concentration at or near the clinical Cmax and decreasing in half-log increments. If the clinical Cmax for an agent had not been determined, the highest concentration tested was 10 microM.
Cell Culture. All cells were maintained in an incubator at 37 degrees C and 5% CO2 with 95% humidity. The PDC lines were cultured according to standard operating procedures established by the NCI PDMR. Briefly, all PDCs were thawed and cultured in Matrigel-coated flasks prepared with a working solution of 1X Ham's F-12 nutrient mix, without supplementation (Invitrogen, Waltham, MA, cat. 11765054), 100 U/mL penicillin-streptomycin (Invitrogen, cat. 15140122), and 2.5% Matrigel (Corning Inc., Corning, NY, cat. 354248) for the first three passages. The 947758-054-R-J2-PDC line was cultured in 6B/Colon 1A media, which includes advanced DMEM/F-12 (Thermo Fisher Scientific, cat. 12634028), 10 mM HEPES (Thermo Fisher Scientific, cat. 15630080), 1X GlutaMAX supplement (Thermo Fisher Scientific, cat. 35050061), 0.1 mg/mL primocin (InvivoGen, cat. ant-pm-2), 10% defined fetal bovine serum, heat inactivated (HyClone Laboratories Inc., cat. SH30070.03HI), 1.25 mM N-Acetyl-L-cysteine (Sigma-Aldrich, cat. A9165), 10 mM nicotinamide (Sigma-Aldrich, cat. N0636), 1X B-27 supplement (Thermo Fisher Scientific, cat. 17504044), 1X N-2 supplement (Thermo Fisher Scientific, cat. 17502048), and 10 microM Y-27632 dihydrochloride (Tocris Bioscience, cat. 1254). The 876862-298-R-J1-PDC was cultured in 6E media, which includes all 6B/Colon 1A media components plus 50% L-WRN conditioned media (ATCC, cat. CRL-3276), 50 ng/mL recombinant human EGF recombinant protein (hEGF; Thermo Fisher Scientific, cat. PHG0311), 10 ng/mL recombinant human fibroblast growth factor 10 (hGFG-10; PeproTech, cat. 100-26), 1 ng/mL recombinant human fibroblast growth factor 2 (hFGF-2; PeproTech, cat. 100-18B), and 1 µM prostaglandin E2 (PGE2; Tocris, cat. 2296). The 227483-062-R1-J1-PDC line was cultured in Panc media, containing all 6E components except hFGF-2, with the addition of 500 nM SB-431542 (Selleckchem, cat. S1067) and 10 nM gastrin (Tocris, cat. 3006). […]
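Note: spheroids exposed to the drug combinations for seven days.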
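Throughout, for viability, T/C: percent viability relative to DMSO vehicle control wells taken as 100%.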

Take `CC(=O)O[C@H]1C(=O)[C@@]2(C)[C@H]([C@H](OC(=O)c3ccccc3)[C@]3(O)C[C@H](OC(=O)[C@H](O)[C@@H](NC(=O)c4ccccc4)c4ccccc4)C(C)=C1C3(C)C)[C@]1(OC(C)=O)CO[C@@H]1C[C@@H]2O`: the viability, T/C is 63.2% and 74.1% (compound 0.0316 µM); 38.9% and 31.5% (compound 0.1 µM); 19.9% and 8.71% (compound 0.316 µM); 17.4% and 11% (compound 1 µM); 20.4% and 9.09% (compound 3.16 µM); 24.4% and 16.4% (compound 10 µM). Further, where the note is “curve of compound”, the negative logarithm of the IC50 (pIC50) is 7.23 and 7.22.
As for `CC1COCCN1c1cc(C2(S(C)(=N)=O)CC2)nc(-c2ccnc3[nH]ccc23)n1` (stereo not given), the viability, T/C is, setting by setting: (compound 0.0316 µM) 101% and 95.8%; (compound 0.1 µM) 101% and 91.5%; (compound 0.316 µM) 98.3% and 92.1%; (compound 1 µM) 101% and 74.8%; (compound 3.16 µM) 99.7% and 89.2%; (compound 10 µM) 81.4% and 53.9%. Further, the negative logarithm of the IC50 (pIC50) (curve of compound) was under 5.00.
With `CN1CCN(c2cc(C(=O)Nc3cc4cc(-c5cnn(C)c5)ccc4cn3)ccn2)CC1`, the viability, T/C (compound 1 µM) is 1.16% [middle of 11 runs]; the viability, T/C (compound 3.16 µM) was 0.72% [middle of 10 runs]; the viability, T/C (compound 10 µM) is 0.46% [middle of 10 runs]. The IC50 (compound alone, run of 07/31/2023) was 529 nM [middle of 10 runs].
Turning to `COc1ccc([C@@H](O)c2cc(-c3ncnc4cc(N5CCOCC5)ccc34)c(F)cc2Cl)nn1`, the viability, T/C (compound 0.0316 µM) was 103% and 84.3%; the viability, T/C (compound 0.1 µM) is 106% and 94.1%; the viability, T/C (compound 0.316 µM) was 109% and 95.4%; the viability, T/C (compound 1 µM) is 99.8% and 91.2%; the viability, T/C (compound 3.16 µM) was 96.1% and 92.5%; the viability, T/C (compound 10 µM) was 83.5% and 79.1%. In addition, the negative-log IC50 (pIC50) (curve of compound) is under 5.00.
As for `COc1cccc2c1C(=O)c1c(O)c3c(c(O)c1C2=O)CC(O)(C(=O)CO)CC3OC1CC(N)C(O)C(C)O1` (stereo not given), the viability, T/C was 92.5% and 101% (compound 0.0316 µM); 99% and 94.5% (compound 0.1 µM); 81.5% and 67.5% (compound 0.316 µM); 72.2% and 48.1% (compound 1 µM); 45.6% and 21.7% (compound 3.16 µM); 17.3% and 17.5% (compound 10 µM). For the same compound, the negative logarithm of the IC50 (pIC50) (curve of compound) was 5.58 and 6.11.
Take `Nc1ccn(C2OC(CO)C(O)C2(F)F)c(=O)n1` (stereo not given): the viability, T/C is 100% and 98% (compound 0.0316 µM); 80.3% and 47.1% (compound 0.1 µM); 39.9% and 22.4% (compound 0.316 µM); 33.8% and 20.9% (compound 1 µM); 38.9% and 21.9% (compound 3.16 µM); 41.3% and 15.8% (compound 10 µM). Further, the pIC50 (curve of compound) was 6.63 and 7.03.
As for `O=C(c1cc(Cc2n[nH]c(=O)c3ccccc23)ccc1F)N1CCN(C(=O)C2CC2)CC1`, the viability, T/C was 89.8% and 102% (compound 0.0316 µM); 91.5% and 89.6% (compound 0.1 µM); 104% (compound 0.316 µM); 105% and 92.8% (compound 1 µM); 107% (compound 3.16 µM); 86% and 115% (compound 10 µM). The pIC50 (curve of compound) was under 5.00.
`O=c1[nH]cc(F)c(=O)[nH]1`: the viability, T/C runs as follows: (compound 0.0316 µM) 94.9% and 97.3%; (compound 0.1 µM) 106% and 96%; (compound 0.316 µM) 55.2% and 69.3%; (compound 1 µM) 50.6% and 37.5%; (compound 3.16 µM) 31.1% and 20.9%; (compound 10 µM) 30.8% and 23.1%. Besides, where the note is “curve of compound”, the pIC50 was 6.35 and 6.20.
As for `CCCS(=O)(=O)Nc1ccc(F)c(C(=O)c2c[nH]c3ncc(-c4ccc(Cl)cc4)cc23)c1F` + CN1CCN(c2cc(C(=O)Nc3cc4cc(-c5cnn(C)c5)ccc4cn3)ccn2)CC1, the pIC50 reads like this: (curve of first compound, second compound 0.0316 µM) under 5.00; (curve of first compound, second compound 0.1 µM) under 5.00; (curve of first compound, second compound 0.316 µM) 5.09; (curve of first compound, second compound 1 µM) over 7.50; (curve of first compound, second compound 3.16 µM) over 7.50; (curve of first compound, second compound 10 µM) over 7.50. Further, the viability, T/C runs as follows: (second compound 0.0316 µM, first compound 0.0316 µM) 103%; (second compound 0.0316 µM, first compound 0.1 µM) 98.2%; (second compound 0.0316 µM, first compound 0.316 µM) 101%; (second compound 0.0316 µM, first compound 1 µM) 99.8%; (second compound 0.0316 µM, first compound 3.16 µM) 97.2%; (second compound 0.0316 µM, first compound 10 µM) 92.4%. Also, the viability, T/C is 98.5% (second compound 0.1 µM, first compound 0.0316 µM); 103% (second compound 0.1 µM, first compound 0.1 µM); 103% (second compound 0.1 µM, first compound 0.316 µM); 106% (second compound 0.1 µM, first compound 1 µM); 109% (second compound 0.1 µM, first compound 3.16 µM); 92.2% (second compound 0.1 µM, first compound 10 µM). Also, the viability, T/C by setting is: (second compound 0.316 µM, first compound 0.0316 µM) 96.7%; (second compound 0.316 µM, first compound 0.1 µM) 96.9%; (second compound 0.316 µM, first compound 0.316 µM) 91.8%; (second compound 0.316 µM, first compound 1 µM) 89.3%; (second compound 0.316 µM, first compound 3.16 µM) 99.9%; (second compound 0.316 µM, first compound 10 µM) 39.5%. The viability, T/C runs as follows: (second compound 1 µM, first compound 0.0316 µM) 1.29%; (second compound 1 µM, first compound 0.1 µM) 4.3%; (second compound 1 µM, first compound 0.316 µM) 5.03%; (second compound 1 µM, first compound 1 µM) 0.45%; (second compound 1 µM, first compound 3.16 µM) 0.8%; (second compound 1 µM, first compound 10 µM) 1.4%. Besides, the viability, T/C is, setting by setting: (second compound 3.16 µM, first compound 0.0316 µM) 0.42%; (second compound 3.16 µM, first compound 0.1 µM) 0.62%; (second compound 3.16 µM, first compound 0.316 µM) 1.12%; (second compound 3.16 µM, first compound 1 µM) 0.53%; (second compound 3.16 µM, first compound 3.16 µM) 0.63%; (second compound 3.16 µM, first compound 10 µM) 0.92%. Further, the viability, T/C (second compound 10 µM, first compound 0.0316 µM) was 0.24%; the viability, T/C (second compound 10 µM, first compound 0.1 µM) was 0.32%; the viability, T/C (second compound 10 µM, first compound 0.316 µM) was 1.24%; the viability, T/C (second compound 10 µM, first compound 1 µM) was 0.33%; the viability, T/C (second compound 10 µM, first compound 3.16 µM) was 0.36%; the viability, T/C (second compound 10 µM, first compound 10 µM) is 0.85%.

The values above are taken from PubChem BioAssay AID2060613 (Molecular Pharmacology Branch, DTP, NCI, 2025).
